Activity calls are given as the source filed them. No cut-off for these calls is given here.
How the values were obtained:
Assay type in all cases: functional, organism-based
[1] = test system: Streptomyces viridochromogenes; assay: Antibacterial activity against Streptomyces viridochromogenes Tu57 assessed as inhibition of spore formation
Escherichia coli = assay: Antibacterial activity against Escherichia coli
Staphylococcus aureus = assay: Antibacterial activity against Staphylococcus aureus
Candida albicans = assay: Antifungal activity against Candida albicans
Rhizomucor miehei = assay: Antifungal activity against Mucor miehei Tu284
[2] = test system: Streptomyces viridochromogenes; assay: Antibacterial activity against Streptomyces viridochromogenes Tu57

In the case of `CCC(C)(O)CCCCC[C@H]1C=CC(=O)O1` (some centres undefined), the Activity [1] is reported as “inactive”.

For `CC(O)C(C)CCCCC[C@H]1C=CC(=O)O1` (stereo in doubt; 2), the Activity [1] was “inactive”.

In the case of `CC(O)C(C)CCCCC[C@H]1C=CC(=O)O1` (stereo in doubt; 3), the Activity [1] is reported as “inactive”.

For `CC(=O)C(C)CCCCC[C@H]1C=CC(=O)O1` (some centres undefined), the Activity (Escherichia coli) was “inactive”, the Activity (Staphylococcus aureus) was “inactive” and the Activity (Candida albicans) was “inactive”. For the same compound, the Activity (Rhizomucor miehei) was “inactive”, the Activity [2] was “inactive” and the Activity [1] was “inactive”.
